# PMC5907308, “21st Brazilian Diabetes Society Congress” (Diabetology & Metabolic Syndrome, 2018)
# Experiments:
# [1] = tested on: patients submitted to liver transplantation; assay type: in vivo, human; details: Tacrolimus 95% CI 1.2–32.5, p = 0.029; PDN 95% CI 2.4–21, 8, p < 0.001
# Source text: A total of 152 patients were included. […] Comparisons were done with Chi square tests and analysis of independent risk factors with multivariate logistic regression.
# [2] = tested on: pregnancies; details: general population: 3-4%; no reference given; cited from earlier work
# Source text: Discussion: In transplanted pregnant women, hypertension and DM increase the risk of prematurity, restricted intrauterine growth (IUGR) and graft loss. […] In addition, there is a higher rate of small newborns for GI. […] As for immunosuppressants, there are few reports. Tacrolimus appears safe (prevalence of congenital malformations: 4-5% ...
# [3] = tested on: patient with mucormycosis; test: Oral mucormycosis in a diabetic patient, case report; assay type: in vivo, human; details: treated for 10 days
# Source text: Case presentation: person, admitted with diabetic ketoacidosis. On the 5th day of hospitalization, they complained of odynophagia, without other symptoms. On examination of the oral cavity, was found an ulcerated, infiltrative, whitish, and non-removable lesion in the soft palate (Fig. 1). No abnormalities were found in laboratory tests.
# [4] = tested on: patients with diabetic dyslipidemia; details: fenofibrate in combination with simvastatin, subgroup with diabetic dyslipidemia; ref [1]; cited from earlier work
# [5] = tested on: patient; test: Neonatal diabetes, therapeutic test with sulfonylurea, case report; assay type: in vivo, human; details: oral, gradual elevation, insulin suspended; discharged on 20 mg/day
# Method: Case presentation: A patient, presenting hypoactivity, sialorrhea and seizures 2 days ago, was admitted to a university hospital. During hospitalization they were evaluated by neurology that identified a discrete delay in neuropsychomotor development. […] Serologies for toxoplasmosis, rubella and measles negative. History of maternal varicella during gestation. […] Due to the delay in carrying out a genetic study to close the diagnosis, material was collected and sent to the genetic service and prescribed sulfonylurea (glibenclamide) as a therapeutic test. The oral medication was initiated in low doses with gradual elevation, and progressive reduction of the insulin until its suspension. […] They were discharged from the hospital using glibenclamide 20 mg/day. The patient is in outpatient follow-up at the endocrinology department of the João de Barros Barreto University Hospital. Endocrinology work team is still waiting for genetic analysis.
# [6] = tested on: patient with diffuse cutaneous leishmaniasis; details: side effect, literature; no reference given; cited from earlier work
# [7] = tested on: patient with diffuse cutaneous leishmaniasis; test: Pentamidine-induced diabetes mellitus, case report; assay type: in vivo, human
# Method: Case report: Patient two, diagnosis of diffuse cutaneous leishmaniasis in treatment since 1995 without therapeutic response after several treatments. Regular follow up with infectology, in maintenance treatment with miltefosine and in treatment with pentamidine every 30 days from January 2017, with a marked improvement of cutaneous lesions. During the follow-up, in consultation in July 2017, they complained of weight loss, polydipsia and nocturia, with serum glycemia of 901 mg/dL. Patient was referred to the hospital where they were diagnosed with a non-ketosis hyperosmolar state, with tests showing serum osmolarity of […] and glycated hemoglobin 10.31%. During hospitalization and after discharge maintained insulin use for glycemic control. Treatment of leishmaniasis with pentamidine was discontinued and will keep following-up with infectology and endocrinology.
# [8] = tested on: patient with squamous cell carcinoma of the hypopharynx; test: Autoimmune diabetes after Nivolumab therapy, case report (A402); assay type: in vivo, human; details: anti-GAD and anti-ICA positive
# Source text: Case report: A patient with diagnosis of squamous cell carcinoma of the hypopharynx and pulmonary metastasis 2 years ago, after a failed treatment with conventional chemotherapy and radiotherapy, started a new class of cancer medication called Nivolumab—human immunoglobulin G4 monoclonal antibody. […] Investigation about the cause of the onset of diabetes founded positivity for diabetes antibodies, anti-GAD and anti-ICA, confirming autoimmune diabetes. Patient has been on intensive insulin therapy since then, with difficult glycemic control due to great glycemic variability.
# [9] = tested on: patient with metastatic lung adenocarcinoma; test: New-onset diabetes on Nivolumab, case report (A288); assay type: in vivo, human
# Method: Case report: A patient was started on Nivolumab infusions every 15 days after chemotherapy refractory progressive metastatic lung adenocarcinoma, with no prior history of diabetes. After 4 infusions, they experienced xerostomia, polyuria, polydipsia and asthenia. Upon emergency evaluation, they were started on I.V. insulin after a capillary glycemia of 600 mg/dL. They were discharged home with 10 units of NPH insulin bedtime, with a referral to the endocrinologist. […] Insulin was titrated for a total daily dose of 0.5 UI/kg. […] Nivolumab was withdrawn and no glycemic improvement nor insulin dose reductions were noted.
# [10] = tested on: type 2 diabetic patient; test: Case report: liraglutide added to insulin degludec and metformin; assay type: in vivo, human; details: 30 days of Insulin Degludec 16U with metformin
# Method: patient one, type 2 diabetic for 3 years, using Gliclazide 60 mg/day and Metformin 1500 mg/day. They reported asthenia and difficulty losing weight. […] To optimize patient glycemic control and weight loss, Liraglutide 1.2 mg/day was initiated. […] The insulin dose was reduced to 10 U and reassessed in 30 days for possible discontinuation of insulin therapy. GLP- 1 receptor agonists stimulate insulin secretion in a […] manner, inhibit glucagon secretion and hepatic glucose output, delay gastric emptying, induce satiety, reduce appetite, and cause weight loss. […] It is a therapeutic option with action well established in weight loss, metabolic and glycemic improvement in the DM2 patient. However, its action on HbA1C reduction was independent of weight loss, evidencing intensive glycemic control with HbA1C between 6.5 and 7.0% even with discrete or even absent weight loss.
# [11] = tested on: child with CGL type 2; test: Case report: high doses of insulin in congenital generalized lipodystrophy; assay type: in vivo, human
# Method: Case: Child with clinical diagnosis of CGL type 2 and diagnosis of diabetes for 1 year. Using Glargina and Lispro insulin basal/bolus (5.1 IU/kg/day) presented mean daily capillary glycemia above 600 mg/dl, associated with irritability, low weight and voracious appetite. Interned for intravenous insulin therapy and nutritional adjustment with standardized diet of 1600 kcal/day fractionated in 7 meals. Initiated continuous infusion of regular insulin (RI), 6.1UI/kg/day. […] Subsequently, it was modified to intramuscular administration, in 5 application times, without differences in glycemic averages. On the 36 th day, Degludeca insulin was introduced (9.3 IU/kg/day) associated with RI (18.2 U/kg/day), evolving within the first 24 h with improved glycemia (180 ± 42 mg/dl). […] After approximately fivefold increase in the initial insulin dose, there was improvement in glycemia, irritability, weight gain and decreased appetite.
# [12] = tested on: patients with T2D; test: Network meta-analysis Gla-300 vs IDeg (inputs of the cost-effectiveness model); assay type: in vivo, human; details: estimated by network meta-analysis
# Source text: Methods: This modelling analysis simulated a cohort representing patients in the EDITION 2 and 3 trials using the IMS Core Diabetes Model with a time horizon of 50 years (lifetime) for 1,000,000 patients starting at 62 years old. […] The treatment cost was $1,561 per SHE and $13.65 per NSHE (2015 $). Utilities to estimate quality-adjusted life years (QALYs) for multiple comorbidities were applied using the minimum utility approach. A disutility of -0.0118 was applied for SHE, and method of diminishing marginal disutility for NSHE.
# [13] = tested on: elderly patients with T2DM; test: Pilot randomized trial Ideg vs Iglar-U100 with CGM; assay type: in vivo, human; details: for 24-h mean glucose, median (minimum–maximum): CGM after 2 weeks, n = 5 per group, P = 0.84; for standard deviation from the mean glucose, median (minimum–maximum): CGM, P = 0.22
# Method: Methods: It is a pilot study with ten patients during six weeks, randomized, prospective, controlled and open label trial. Inclusion criteria: T2DM, age over 60 years, A1C from 7 to 10%, use of NPH insulin with or without oral antidiabetic drugs. […] They were evaluated for glucose variability (GV) and HYPOs by continuous glucose monitoring (CGM) after 2 weeks of treatment with either insulin.
# [14] = tested on: T1D patients < 18 years; test: Real-world clinical follow-up of T1D patients < 18 years switched to insulin degludec; assay type: in vivo, human; details: n = 9
# Source text: Information about HbA1c, insulin dose, weight and frequency of hypoglycaemia (self-reported by patients/parents) were collected in every consultant.
# [15] = tested on: patients with DM 1 and DRIASM; test: Case reports: IDeg in resistance to subcutaneous and intramuscular insulin (DRIASM); assay type: in vivo, human; details: patient 1; IDeg since December 2015
# Method: It was suspected of diabetes mellitus with resistance to insulin administered subcutaneously or intramuscularly (DRIASM). […] After that it was decided to perform a therapeutic test with IDeg. […] They remained in use of IDeg 80 UI/d and lispro 600 UI/d. […] An insulin challenge test was performed with SC and IM NPH/Glargina/Detemir and IV regular insulin. […] They remained in use of IDeg 80 UI/d and aspart 2000 UI/d.
# [16] = tested on: patient with DRIASM; test: Insulin degludec in DRIASM, case report; assay type: in vivo, human
# Source text: Discussion: DRIASM is a rare syndrome, characterized by extreme resistance to SC and IM insulin, whose pathophysiology remains unknown. There are few treatments available and most are ineffective. The use of intraperitoneal insulin pump is the therapy with the best result so far, but it is not available in Brazil. Another possibility is the PTA, initially proposed by our group and then performed in other countries. […] After SC injection, the di-hexamers form a stable depot of multi-hexamer chains, with gradual dissociation of these chains into absorbed monomers.
# [17] = tested on: inpatient population with diabetes; test: Degludeca vs NPH, both with Regular Insulin, in hospital (8 patients per group); details: human, in vivo
# Method: Methods: We conducted a retrospective, randomized study to compare the efficacy and safety of different basal insulin (Degludeca versus NPH), both on Basal-bolus insulin regimen on inpatient population with diabetes. Data were collected from the medical records, between May, 2016 until April, 2017. 8 patients were selected and randomized in each group. We established optimal glycemic control for patients with capillary glucose below 140 mg/dl in fasting and before main meals and below 180 mg/dL for 2 h after main meals. The criteria for excellent glycemic control was to achieve at least 70% within the previously established target and for acceptable glycemic control, those patients who had between 60% and 69% of the glycemia within the established target. The total number of hypoglycemia was assessed and classified as severe hypoglycemia (< 40 mg/dl) and mild hypoglycemia (< 70 mg/dl) as well as nocturnal hypoglycemia. In addition, the time required to achieve excellent or acceptable glycemic control was also analyzed.
# [18] = tested on: patients with T2DM uncontrolled on oral antidiabetic agents; test: LixiLan-O, time to glycemic control (Kaplan–Meier), post hoc; assay type: in vivo, human; details: LL-O
# Method: The Kaplan–Meier method was used to estimate time to control, defined as time (days) to first achieve HbA1c < 7% or FPG ≤ 130 mg/dL. […] In addition to lowering FPG via iGlar, iGlarLixi lowers PPG, likely contributing to its greater efficacy in achieving glycemic control vs. iGlar alone. […] Study codes: NCT02058160 and NCT02058147. This is an ENCORE abstract previously presented at ADA 2017. Funding and editorial support provided by Sanofi (Fig. 1)
# [19] = tested on: subjects with T2D inadequately controlled on IGlarU100 and metformin; test: DUAL V 26-week open-label treat-to-target trial; assay type: in vivo, human
molecule,measurement,setting,value
C=CC[C@@H]1/C=C(\C)C[C@H](C)C[C@H](OC)[C@H]2O[C@@](O)(C(=O)C(=O)N3CCCC[C@H]3C(=O)O[C@H](/C(C)=C/[C@@H]3CC[C@@H](O)[C@H](OC)C3)[C@H](C)[C@@H](O)CC1=O)[C@H](C)C[C@@H]2OC [Tacrolimus],"independent risk factor for PTDM, OR",[1],6.3
same,prevalence of congenital malformations,[2],4-5%
C[C@@H]1[C@H](O)[C@@H](C)/C=C/C=C/C=C/C=C/C=C/C=C/C=C/[C@H](O[C@@H]2O[C@H](C)[C@@H](O)[C@H](N)[C@@H]2O)C[C@@H]2O[C@](O)(C[C@@H](O)C[C@@H](O)[C@H](O)CC[C@@H](O)C[C@@H](O)CC(=O)O[C@H]1C)C[C@H](O)[C@H]2C(=O)O [amphotericin B],clinical response,[3],favorable response
CC(C)OC(=O)C(C)(C)Oc1ccc(C(=O)c2ccc(Cl)cc2)cc1 [fenofibrate],primary outcomes reduced compared to placebo,[4],about 30%
COc1ccc(Cl)cc1C(=O)NCCc1ccc(S(=O)(=O)NC(=O)NC2CCCCC2)cc1 [glibenclamide],clinical evolution,[5],good glycemic control and improved neurological symptoms
N=C(N)c1ccc(OCCCCCOc2ccc(C(=N)N)cc2)cc1 [pentamidine],"hyperglycemia reported, cases",[6],1-5%
same,glycated hemoglobin,[7]; in vivo,10.31%
same,serum osmolarity,[7]; non-ketosis hyperosmolar state,306 mOsm/L
same,serum glycemia,"[7]; pentamidine every 30 days from January 2017, July 2017",901 mg/dL
Nivolumab,presentation after the third cycle,[8],"hyperglycemia, polyuria and polydipsia"
same,capillary glycemia,"[9]; after 4 infusions, every 15 days",600 mg/dL
same,C-peptide,[9]; in vivo,0.34 ng/dL
same,possible adverse event,[9]; in vivo,New-onset diabetes presenting with Diabetic Ketoacidosis and low levels of Cpeptide
insulin degludec [IDeg],fasting glycemia (GJ),[10],171 mg/dL
same,HbA1c,[10]; […] before,8.2%
same,blood glucose level,[11]; after the first 24 h of Degludeca with RI,232.6 ± 74.7 mg/dL
same,glycemia,[11]; first 24 h of Degludeca 9.3 IU/kg/day with RI 18.2 U/kg/day,180 ± 42 mg/dL
same,A1C reduction over 24 weeks,[12],0.98%
same,"24-h mean glucose, median (minimum–maximum)",[13],168 (151–206) mg/dL
same,"standard deviation from the mean glucose, median (minimum–maximum)",[13],69 (42– 83)
same,Median HbA1c at 6 months after switch,[14],7.52%
same,Median HbA1c before switch,[14]; on previous basal insulin or CSII,8.17%
same,hospitalizations due to DKA,[15],reduction of hospitalizations
same,treatment of DRIASM,"[16]; case report, extreme resistance to SC and IM insulin","effective in the treatment of DRIASM, with reduction in hospital admissions and DKA episodes"
same,absorption and plasma glucose in test,[16]; differently from all previously basal insulins,able to be absorbed and to reduce plasma glucose
same,"time to achieve excellent glycemic control, average",[17],4 days
insulin glargine [Gla-100],"Days to first HbA1c <7%, median",[18],166.0 days
same,"24-h mean glucose, median (minimum–maximum)",[13],169 (138–193) mg/dL
same,"standard deviation from the mean glucose, median (minimum–maximum)",[13],45 (41–66)
same,mean fasting SMBG after 26 weeks,[19]; NS,5.6 mmol/L
same,Mean HbA1c after 26 weeks of treatment,[19]; in vivo,7.1%
same,"Mean HbA1c, baseline",[19]; in vivo,8.2%
